Source: patent US8841073B2, “Methods for identifying RNA segments bound by RNA-binding proteins or ribonucleoprotein complexes” (The Rockefeller University, priority 2008, dated 2014)
{NH2} = code of the source, not defined here; [4sU] = 4-thiouridine

These substances were tested against T1, recombinant His6-QKI protein (Homo sapiens, UniProt Q96PU8) (assay: Electrophoretic mobility shift assay (gel-shift) with recombinant QKI). Conditions: not given.
T1 construct: His6 (N); made in house; host or cells: E. coli STAR(DE3)
T1 sequence (Q96PU8 1-319 isoform Q96PU8-9): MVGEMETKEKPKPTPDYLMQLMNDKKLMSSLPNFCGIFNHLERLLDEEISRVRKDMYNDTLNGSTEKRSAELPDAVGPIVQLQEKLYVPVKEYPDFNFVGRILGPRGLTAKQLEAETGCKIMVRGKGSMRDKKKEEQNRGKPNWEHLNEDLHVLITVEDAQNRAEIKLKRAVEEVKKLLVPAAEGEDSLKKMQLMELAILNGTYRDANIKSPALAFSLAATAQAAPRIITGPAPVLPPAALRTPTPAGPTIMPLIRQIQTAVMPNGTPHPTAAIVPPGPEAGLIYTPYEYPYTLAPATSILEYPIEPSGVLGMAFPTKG
Type: binding
Procedure: FIG. 11: Electrophoretic mobility shift assay (EMSA) to analyze binding of recombinant QKI to synthetic oligoribonucleotides with a sequence derived from a cluster identified by QKI PURE-CLIP. […] C Mutation of either one of the QKI binding sites (marked with red bars in the RNA-sequence) results in decreased affinity of QKI to the RNA. Mutation of both binding sites leads to complete loss of affinity of QKI to the RNA.
Radiolabeled RNA (1 nM) was incubated with recombinant His6-QKI protein at various concentrations and 100 ng tRNA in 20 μl of 20 mM HEPES-KOH, pH 7.4, 330 mM KCl, 10 mM MgCl2, 0.1 mM EDTA and 0.01% IGEPAL CA630 (Sigma). After addition of 6 μl loading dye (40% glycerol, bromophenol blue in binding buffer), the solution was loaded onto a native 10% acrylamide gel containing 0.5×TBE, running at 200 V for 2 h at room temperature, using 0.5×TBE as running buffer. The protein-bound RNA and the free RNA were quantified using a phosphorimager.

Substance	RNA-binding / affinity to recombinant QKI by gel-shift analysis
U10: synthetic oligoribonucleotide with 4SU at position 3 of the QKI recognition element; GUAUGCCAU(4sU)AACAAAUUCAUUAACAA (SEQ ID NO: 31) (GUAUGCCAUUAACAAAUUCAUUAACAA; RNA, [4sU] at 10, backbone not given here)	unaffected

The substances below were run on most abundant miRNAs in HEK293 cells (assay: miRNA inhibition by cocktail of 2'-O-methyl antisense oligoribonucleotides in HEK293 cells; seed match depletion/enrichment in down-/up-regulated transcripts (Affymetrix arrays)). Conditions: antisense cocktail vs mock.
Type: cell-based, human
Procedure: All miRNAs are assumed to have U at position 1. p-values for 4 types of seeds, indicated below, were tested.
miRNAs are predominantly localized to the cytoplasm although a smaller fraction can be detected in nuclear extracts (Hwang et al., 2007; Meister et al., 2004; Pena et al., 2009; Robb et al., 2005; Weinmann et al., 2009). Our CCRs correspond to 84% exonic, 14% intronic, and 2% not assigned transcribed regions. This distribution is consistent with the predominant cytoplasmic function of miRNAs. Of the exonic CCRs, 50% distributed to the CDS, 46% to the 3′ UTR, and 4% to the 5′ UTR of mRNAs, with a specific enrichment in the 3′UTRs relative to what is expected based on the relative lengths of different transcript regions (FIG. 6D). The identification of such a large number of miRNA binding sites within the CDS was unexpected, because miRNA are believed to predominantly act on 3′ UTRs (Bartel, 2009), with a few reports providing evidence for miRNA-binding to 5′ UTR or CDS (Forman et al., 2008; Lytle et al., 2007; Orom et al., 2008; Tay et al., 2008). In order to determine if CCR-containing transcripts were indeed subject to miRNA-dependent regulation, we inhibited 25 of the most abundant miRNAs in HEK293 cells (FIG. 5C) with a cocktail of 2′-O-methyl-modified antisense oligoribonucleotides (FIG. 7A and see FIG. 28A-C for the efficiency of the individual antisense oligoribonucleotide). The change in relative mRNA abundance before and after miRNA inhibition was recorded by Affymetrix whole transcriptome array analysis.
miRNA duplexes and 2′-O-methyl oligoribonucletide transfections of HEK293 TREx Flp-In cells were carried out using Lipofectamine RNAiMAX (Invitrogen). Total RNA was isolated by TRIZOL RNA extraction. The RNA was further purified and Human Genome U133 Plus 2.0 Array (Affymetrix) analyses were performed as described previously (Landthaler et al., 2008).
CEL files of mRNA profiles from miRNA/2′O-methyl oligonucleotide and mocktransfected cell were loaded into the R software using the BioConductor affy package (Gentleman et al., 2004). The transcript probe set intensities were background-corrected, adjusted for non-specific binding and quantile normalized with the GCRMA algorithm (Wu, 2006). Probe sets with more than 6 of the 11 probes mapping ambiguously to the genome were discarded, as were probe sets that mapped to multiple genes. We then collected all probe sets matching a given gene, and we computed the logarithm of gene-level expression as the average of the log-intensity of probe sets mapping to that gene. For sequence analyses we also selected a representative transcript for each gene. This was the Genbank transcript with median 3′ UTR length corresponding to that gene. In total this procedure gave us expression measurements for 16,063 genes (and representative transcripts). The difference between the log-expression levels of a gene in samples treated with a cocktail of 2′-O-methyl oligoribonucleotides and mock transfected cells was taken as a measure of transcript stabilization upon miRNA inhibition.

Substance	efficiency of the individual antisense oligoribonucleotide (inhibition of cognate miRNA)
let-7a: 2'-O-methyl antisense oligoribonucleotide AACUAUACAACCUACUACCUCA-NH2 (SEQ ID NO: 42) (all 2'-O-methyl, 3' {NH2}, backbone not given here)	Marginal
miR-10a: 2'-O-methyl antisense oligoribonucleotide CACAAAUUCGGAUCUACAGGGUA-NH2 (SEQ ID NO: 43) (all 2'-O-methyl, 3' {NH2}, backbone not given here)	did not seem to have inhibited their cognate miRNAs
miR-15a: 2'-O-methyl antisense oligoribonucleotide CGCCAAUAUUUACGUGCUGCUA (SEQ ID NO: 44) (all 2'-O-methyl, backbone not given here)	Worked
miR-17: 2'-O-methyl antisense oligoribonucleotide CUACCUGCACUGUAAGCACUUUG (SEQ ID NO: 47) (all 2'-O-methyl, backbone not given here)	Worked
miR-18a: 2'-O-methyl antisense oligoribonucleotide CUAUCUGCACUAGAUGCACCUUA-NH2 (SEQ ID NO: 48) (all 2'-O-methyl, 3' {NH2}, backbone not given here)	Worked
miR-19a: 2'-O-methyl antisense oligoribonucleotide UCAGUUUUGCAUAGAUUUGCACA (SEQ ID NO: 49) (all 2'-O-methyl, backbone not given here)	Worked
miR-21: 2'-O-methyl antisense oligoribonucleotide UCAACAUCAGUCUGAUAAGCUA (SEQ ID NO: 53) (all 2'-O-methyl, backbone not given here)	Marginal
miR-27a: 2'-O-methyl antisense oligoribonucleotide AACUAUACAAUCUACUACCUCA (SEQ ID NO: 55) (all 2'-O-methyl, backbone not given here)	did not seem to have inhibited their cognate miRNAs
miR-30a: 2'-O-methyl antisense oligoribonucleotide CUUCCAGUCGAGGAUGUUUACA-NH2 (SEQ ID NO: 56) (all 2'-O-methyl, 3' {NH2}, backbone not given here)	Worked
miR-92a: 2'-O-methyl antisense oligoribonucleotide ACAGGCCGGGACAAGUGCAAUA (SEQ ID NO: 58) (all 2'-O-methyl, backbone not given here)	Worked
miR-101: 2'-O-methyl antisense oligoribonucleotide UUCAGUUAUCACAGUACUGUA (SEQ ID NO: 60) (all 2'-O-methyl, backbone not given here)	Marginal
miR-103: 2'-O-methyl antisense oligoribonucleotide UCAUAGCCCUGUACAAUGCUGCU (SEQ ID NO: 61) (all 2'-O-methyl, backbone not given here)	Worked
miR-186: 2'-O-methyl antisense oligoribonucleotide AGCCCAAAAGGAGAAUUCUUUG (SEQ ID NO: 63) (all 2'-O-methyl, backbone not given here)	Didn't Work Well
miR-301b: 2'-O-methyl antisense oligoribonucleotide GCUUUGACAAUACUAUUGCACUG (SEQ ID NO: 64) (all 2'-O-methyl, backbone not given here)	Worked
miR-378: 2'-O-methyl antisense oligoribonucleotide CCUUCUGACUCCAAGUCCAGU (SEQ ID NO: 65) (all 2'-O-methyl, backbone not given here)	Marginal

Same assay, conditions: antisense cocktail vs mock, listed as MiR-10a

Substance	efficiency of the individual antisense oligoribonucleotide (inhibition of cognate miRNA)
miR-10a: 2'-O-methyl antisense oligoribonucleotide CACAAAUUCGGAUCUACAGGGUA-NH2 (SEQ ID NO: 43) (all 2'-O-methyl, 3' {NH2}, backbone not given here)	Didn't Work

Same assay, conditions: antisense cocktail vs mock, listed as MiR-27a

Substance	efficiency of the individual antisense oligoribonucleotide (inhibition of cognate miRNA)
miR-27a: 2'-O-methyl antisense oligoribonucleotide AACUAUACAAUCUACUACCUCA (SEQ ID NO: 55) (all 2'-O-methyl, backbone not given here)	Didn't Work
